Data taken from patent US20130303507A1 (Novartis AG, priority 2011, published 2013).

Biological target: Cdk9/cyclinT1 (Homo sapiens, UniProt P50750)
Assay: Cdk9/cyclinT1 IMAP protocol (fluorescence polarization)
Details: IC-50, CDK9; lower limit of assay 0.0005 micromolar

Sequence of Cdk9/cyclinT1 (P50750 whole entry): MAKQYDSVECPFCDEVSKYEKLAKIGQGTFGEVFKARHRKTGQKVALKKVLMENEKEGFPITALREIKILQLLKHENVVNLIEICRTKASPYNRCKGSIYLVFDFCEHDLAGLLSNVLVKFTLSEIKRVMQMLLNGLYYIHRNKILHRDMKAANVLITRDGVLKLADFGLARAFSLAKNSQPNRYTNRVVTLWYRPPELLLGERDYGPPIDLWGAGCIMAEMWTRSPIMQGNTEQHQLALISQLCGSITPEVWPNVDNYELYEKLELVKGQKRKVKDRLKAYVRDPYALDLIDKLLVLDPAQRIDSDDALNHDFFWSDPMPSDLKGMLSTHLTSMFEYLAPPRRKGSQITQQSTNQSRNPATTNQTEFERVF
Sequence of Cdk9/cyclinT1 (O60563 whole entry partner): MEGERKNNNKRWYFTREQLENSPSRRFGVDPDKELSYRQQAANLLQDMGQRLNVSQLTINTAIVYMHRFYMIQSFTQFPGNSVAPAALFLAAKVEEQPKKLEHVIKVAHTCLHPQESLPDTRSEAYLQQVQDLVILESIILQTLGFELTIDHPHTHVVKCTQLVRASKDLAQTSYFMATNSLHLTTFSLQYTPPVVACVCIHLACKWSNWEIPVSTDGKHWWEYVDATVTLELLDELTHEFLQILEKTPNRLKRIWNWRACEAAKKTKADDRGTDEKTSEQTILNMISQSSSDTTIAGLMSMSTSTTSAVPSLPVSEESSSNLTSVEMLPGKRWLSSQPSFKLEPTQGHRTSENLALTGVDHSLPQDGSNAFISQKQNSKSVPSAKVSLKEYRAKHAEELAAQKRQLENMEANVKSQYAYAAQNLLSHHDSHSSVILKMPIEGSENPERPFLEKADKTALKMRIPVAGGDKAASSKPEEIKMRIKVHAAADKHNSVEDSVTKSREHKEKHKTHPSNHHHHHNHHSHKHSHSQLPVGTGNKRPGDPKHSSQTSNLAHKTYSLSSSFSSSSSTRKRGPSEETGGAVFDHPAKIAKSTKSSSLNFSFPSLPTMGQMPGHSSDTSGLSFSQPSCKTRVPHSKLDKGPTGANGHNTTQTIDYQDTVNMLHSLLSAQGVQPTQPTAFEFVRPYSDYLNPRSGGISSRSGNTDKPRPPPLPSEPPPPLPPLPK

Structure (SMILES) | IC50
N#CC1(CNc2cccc(-c3cc(N[C@H]4CC[C@@H](N)CC4)ncc3Cl)n2)CCOCC1 [Compound 465, 4-(((2′-((cis-4-aminocyclohexyl)amino)-5′-chloro-[2,4′-bipyridin]-6-yl)amino)methyl)tetrahydro-2H-pyran-4-carbonitrile] | 1.2 nM
N#CC1(CNc2cccc(-c3cc(N[C@H]4CC[C@H](N)CC4)ncc3F)n2)CCOCC1 [Compound 479, 4-(((2′-((trans-4-aminocyclohexyl)amino)-5′-fluoro-[2,4′-bipyridin]-6-yl)amino)methyl)tetrahydro-2H-pyran-4-carbonitrile] | < 0.5 nM
N#CC1(CNc2cccc(-c3cc(N[C@@H]4CC[C@@H](N(CC5CCCO5)CC5CCCO5)C4)ncc3Cl)n2)CCOCC1 (some centres unmarked) [Example 407] | 5.5 nM
N#CC1(CNc2cccc(-c3cc(N[C@H]4CC[C@H](NC[C@@H]5CCCO5)CC4)ncc3F)n2)CCOCC1 [Compound 483, 4-(((5′-fluoro-2′-((trans-4-((((S)-tetrahydrofuran-2-yl)methyl)amino)cyclohexyl)amino)-[2,4′-bipyridin]-6-yl)amino)methyl)tetrahydro-2H-pyran-4-carbonitrile] | < 0.5 nM
COC[C@H](C)N[C@H]1CC[C@H](Nc2cc(-c3cccc(NCC4(C#N)CCOCC4)n3)c(Cl)cn2)CC1 [Compound 459, 4-(((5′-chloro-2′-((trans-4-(((S)-1-methoxypropan-2-yl)amino)cyclohexyl)amino)-[2,4′-bipyridin]-6-yl)amino)methyl)tetrahydro-2H-pyran-4-carbonitrile] | ≤ 0.5 nM
CO[C@H]1C[C@@H](Nc2cc(-c3cccc(NCC4(C#N)CCOCC4)n3)c(Cl)cn2)CC[C@@H]1N [Compound 439, 4-(((2′-(((1S,3S,4S)-4-amino-3-methoxycyclohexyl)amino)-5′-chloro-[2,4′-bipyridin]-6-yl)amino)methyl)tetrahydro-2H-pyran-4-carbonitrile] | 10 nM
COC[C@@H](C)N[C@H]1CC[C@H](Nc2cc(-c3cccc(NCC4(C#N)CC4)n3)c(Cl)cn2)CC1 [Cmpd 400, 1-(((5′-chloro-2′-((trans-4-(((R)-1-methoxypropan-2-yl)amino)cyclohexyl)amino)-[2,4′-bipyridin]-6-yl)amino)methyl)cyclopropane-carbonitrile] | < 0.5 nM
N#CC1(CNc2cccc(-c3cc(N[C@H]4CC[C@H](N[C@H]5CCOC5)CC4)ncc3Cl)n2)CCOCC1 [Compound 469, 4-(((5′-chloro-2′-((trans-4-(((S)-tetrahydrofuran-3-yl)amino)cyclohexyl)amino)-[2,4′-bipyridin]-6-yl)amino)methyl)tetrahydro-2H-pyran-4-carbonitrile] | < 0.5 nM
CO[C@H]1CCN([C@H]2CC[C@H](Nc3cc(-c4cccc(NCC5(C#N)CCOCC5)n4)c(Cl)cn3)CC2)C1 [Compound 475, 4-(((5′-chloro-2′-((trans-4-((S)-3-methoxypyrrolidin-1-yl)cyclohexyl)amino)-[2,4′-bipyridin]-6-yl)amino)methyl)tetrahydro-2H-pyran-4-carbonitrile] | 0.6 nM
CC(C)(C)OCCN[C@H]1CC[C@H](Nc2cc(-c3cccc(NCC4(C#N)CCOCC4)n3)c(Cl)cn2)CC1 [Compound 432, 4-(((2′-((trans-4-((2-(tert-butoxy)ethyl)amino)cyclohexyl)amino)-5′-chloro-[2,4′-bipyridin]-6-yl)amino)methyl)tetrahydro-2H-pyran-4-carbonitrile] | < 0.5 nM
C[C@@H]1COCCN1[C@H]1CC[C@H](Nc2cc(-c3cccc(NCC4(C#N)CCOCC4)n3)c(Cl)cn2)CC1 [Compound 503, 4-(((5′-chloro-2′-((trans-4-((R)-3-methylmorpholino)cyclohexyl)amino)-[2,4′-bipyridin]-6-yl)amino)methyl)tetrahydro-2H-pyran-4-carbonitrile] | 2.6 nM
N#CC1(CNc2cccc(-c3cc(N[C@H]4CC[C@H](NCCF)CC4)ncc3Cl)n2)CCOCC1 [Compound 424, 4-(((5′-chloro-2′-((trans-4-((2-fluoroethyl)amino)cyclohexyl)amino)-[2,4′-bipyridin]-6-yl)amino)methyl)tetrahydro-2H-pyran-4-carbonitrile] | < 0.5 nM
N#CC1(CNc2cccc(-c3cc(N[C@H]4CC[C@H](NC5CCOC5)CC4)ncc3Cl)n2)CCOCC1 (stereo partly drawn) [Compound 467, 4-(((5′-chloro-2′-((trans-4-((tetrahydrofuran-3-yl)amino)cyclohexyl)amino)-[2,4′-bipyridin]-6-yl)amino)methyl)tetrahydro-2H-pyran-4-carbonitrile] | < 0.5 nM
COC[C@]1(O)CC[C@@H](Nc2cc(-c3cccc(NCC4CCOCC4)n3)c(Cl)cn2)CC1 [Compound 447, Cis-4-((5′-chloro-6-(((tetrahydro-2H-pyran-4-yl)methyl)amino)-[2,4′-bipyridin]-2′-yl)amino)-1-(methoxymethyl)cyclohexanol] | 42 nM

The next lines start with the values.

IC50 | Structure (SMILES)
1.3 nM | N#CC1(CNc2cccc(-c3cc(N[C@H]4CC[C@H](N5CCNC(=O)C5)CC4)ncc3Cl)n2)CCOCC1 [Compound 417]
< 0.5 nM | N#CC1(CNc2cccc(-c3cc(N[C@H]4CC[C@H](NCC5CCCO5)CC4)ncc3F)n2)CCOCC1 (stereo partly drawn) [Compound 482, 4-(((5′-fluoro-2′-((trans-4-(((tetrahydrofuran-2-yl)methyl)amino)cyclohexyl)amino)-[2,4′-bipyridin]-6-yl)amino)methyl)tetrahydro-2H-pyran-4-carbonitrile]
0.6 nM | N#CC1(CNc2cccc(-c3cc(N[C@H]4CC[C@H](N5CCCOCC5)CC4)ncc3Cl)n2)CCOCC1 [Compound 428, 4-(((2′-((trans-4-(1,4-oxazepan-4-yl)cyclohexyl)amino)-5′-chloro-[2,4′-bipyridin]-6-yl)amino)methyl)tetrahydro-2H-pyran-4-carbonitrile]
< 0.5 nM | N#CC1(CNc2cccc(-c3cc(N[C@H]4CC[C@H](NCC(N)=O)CC4)ncc3Cl)n2)CCOCC1 [Compound 419, 2-((trans-4-((5′-chloro-6-(((4-cyanotetrahydro-2H-pyran-4-yl)methyl)amino)-[2,4′-bipyridin]-2′-yl)amino)cyclohexyl)amino) acetamide]
< 0.5 nM | N#CC1(CNc2cccc(-c3cc(N[C@H]4CC[C@H](N[C@@H]5CCOC5)CC4)ncc3Cl)n2)CCOCC1 [Compound 470, 4-(((5′-chloro-2′-((trans-4-(((R)-tetrahydrofuran-3-yl)amino)cyclohexyl)amino)-[2,4′-bipyridin]-6-yl)amino)methyl)tetrahydro-2H-pyran-4-carbonitrile]
< 0.5 nM | CC(C)S(=O)(=O)NC[C@H]1CC[C@H](Nc2cc(-c3cccc(NCC4(C#N)CCOCC4)n3)c(Cl)cn2)CC1 [Compound 495, N-((trans-4-((5′-chloro-6-(((4-cyanotetrahydro-2H-pyran-4-yl)methyl)amino)-[2,4′-bipyridin]-2′-yl)amino)cyclohexyl)methyl) propane-2-sulfonamide]
< 0.5 nM | CNC(=O)CN[C@H]1CC[C@H](Nc2cc(-c3cccc(NCC4(C#N)CCOCC4)n3)c(Cl)cn2)CC1 [Compound 420, 2-((trans-4-((5′-chloro-6-(((4-cyanotetrahydro-2H-pyran-4-yl)methyl)amino)-[2,4′-bipyridin]-2′-yl)amino)cyclohexyl)amino)-N-methylacetamide]
< 0.5 nM | CS(=O)(=O)NC[C@H]1CC[C@H](Nc2cc(-c3cccc(NCC4(C#N)CCOCC4)n3)c(Cl)cn2)CC1 [Compound 494, N-((trans-4-((5′-chloro-6-(((4-cyanotetrahydro-2H-pyran-4-yl)methyl)amino)-[2,4′-bipyridin]-2′-yl)amino)cyclohexyl)methyl) methanesulfonamide]
≤ 0.5 nM | N#CC1(CNc2cccc(-c3cc(N[C@H]4CC[C@H](CNc5cc(Cl)ncn5)CC4)ncc3Cl)n2)CCOCC1 [Compound 505, 4-(((5′-chloro-2′-((trans-4-(((6-chloropyrimidin-4-yl)amino)methyl)cyclohexyl)amino)-[2,4′-bipyridin]-6-yl)amino)methyl)tetrahydro-2H-pyran-4-carbonitrile]
1.1 nM | COC[C@]1(O)CC[C@@H](Nc2cc(-c3cccc(NCC4(C#N)CCOCC4)n3)c(Cl)cn2)CC1 [Compound 448, 4-(((5′-chloro-2′-((cis-4-hydroxy-4-(methoxymethyl)cyclohexyl)amino)-[2,4′-bipyridin]-6-yl)amino)methyl)tetrahydro-2H-pyran-4-carbonitrile]
< 0.5 nM | COC[C@@H](C)N[C@H]1CC[C@H](Nc2cc(-c3cncc(NCC4(C#N)CCOCC4)n3)c(Cl)cn2)CC1 [Compound 507, 4-(((6-(5-chloro-2-((trans-4-(((R)-1-methoxypropan-2-yl)amino)cyclohexyl)amino)pyridin-4-yl)pyrazin-2-yl)amino)methyl)tetrahydro-2H-pyran-4-carbonitrile]
19 nM | CO[C@@H]1CCN([C@H]2CC[C@@H](Nc3cc(-c4cccc(NCC5(C#N)CCOCC5)n4)c(Cl)cn3)CC2)C1 [Compound 478, 4-(((5′-chloro-2′-((cis-4-((R)-3-methoxypyrrolidin-1-yl)cyclohexyl)amino)-[2,4′-bipyridin]-6-yl)amino)methyl)tetrahydro-2H-pyran-4-carbonitrile]
< 0.5 nM | COCCN[C@H]1CC[C@H](Nc2cc(-c3cccc(NCC4(C#N)CCOCC4)n3)c(F)cn2)CC1 [Compound 474, 4-(((5′-fluoro-2′-((trans-4-((2-methoxyethyl)amino)cyclohexyl)amino)-[2,4′-bipyridin]-6-yl)amino)methyl)tetrahydro-2H-pyran-4-carbonitrile]
0.7 nM | CCOC(=O)C(C)(C)N[C@H]1CC[C@H](Nc2cc(-c3cccc(NCC4(C#N)CCOCC4)n3)c(Cl)cn2)CC1 [Compound 452, ethyl 2-((trans-4-((5′-chloro-6-(((4-cyanotetrahydro-2H-pyran-4-yl)methyl)amino)-[2,4′-bipyridin]-2′-yl)amino)cyclohexyl)amino)-2-methylpropanoate]
< 0.5 nM | N#CC1(CNc2cccc(-c3cc(N[C@H]4CC[C@H](NC[C@H]5CCCO5)CC4)ncc3Cl)n2)CCOCC1 [Compound 473, 4-(((5′-chloro-2′-((trans-4-((((R)-tetrahydrofuran-2-yl)methyl)amino)cyclohexyl)amino)-[2,4′-bipyridin]-6-yl)amino)methyl)tetrahydro-2H-pyran-4-carbonitrile]
